Reference: patent US20080312435A1, “Imine Compound” (TAISHO PHARMACEUTICAL CO., LTD., priority 2004, published 2008)

Key:
human CB1 receptor = molecular target: T1, human CB1 receptor (Homo sapiens, UniProt P21554); assay: Human CB1 receptor binding inhibition test; details: CHO-DHFR(−) cells stably expressing human CB1 receptor, same manner as Experimental Example 1
T1 construct: expressed in transfected cells
Procedure: Human CB1 Receptor Binding Inhibition Test
The CHO-DHFR(−) cells capable of stably expressing a CB1 receptor were prepared in the same manner as in Experimental Example 1. The binding test to the human CB1 receptor was performed to obtain 50% inhibitory concentration (IC50 value) of a test compound.

human CB2 receptor = molecular target: T2, human CB2 receptor (Homo sapiens, UniProt P34972); assay: Human CB2 receptor binding inhibition test ([3H]CP-55,940, CHO membrane fractions); details: [3H]CP-55,940, membrane fractions of CHO cells stably expressing human CB2 receptor, 25° C., 2 hours; read-out: CB2 IC50 (Inhibition of binding to human CB2 receptor)
T2 construct: expressed in transfected cells
T2 sequence (P34972 whole entry): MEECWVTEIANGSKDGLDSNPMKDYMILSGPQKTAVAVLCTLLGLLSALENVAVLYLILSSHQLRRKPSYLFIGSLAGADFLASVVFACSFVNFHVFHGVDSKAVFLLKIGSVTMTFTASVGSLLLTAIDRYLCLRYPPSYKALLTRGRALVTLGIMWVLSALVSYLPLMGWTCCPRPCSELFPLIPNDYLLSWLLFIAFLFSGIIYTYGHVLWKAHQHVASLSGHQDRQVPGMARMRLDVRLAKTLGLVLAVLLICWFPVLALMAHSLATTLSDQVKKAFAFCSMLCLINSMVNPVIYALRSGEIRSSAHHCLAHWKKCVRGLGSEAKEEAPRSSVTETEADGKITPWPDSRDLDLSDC
Method in brief: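 Membranes from CHO-DHFR(−) cells stably expressing human CB2 used for [3H]CP-55,940 binding; filter-bound radioactivity counted by scintillation after washes with 0.1% BSA buffer. Nonspecific binding defined with 2.0 μM CP-55,940; IC50 for inhibition of specific binding.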

T1 sequence (P21554 whole entry): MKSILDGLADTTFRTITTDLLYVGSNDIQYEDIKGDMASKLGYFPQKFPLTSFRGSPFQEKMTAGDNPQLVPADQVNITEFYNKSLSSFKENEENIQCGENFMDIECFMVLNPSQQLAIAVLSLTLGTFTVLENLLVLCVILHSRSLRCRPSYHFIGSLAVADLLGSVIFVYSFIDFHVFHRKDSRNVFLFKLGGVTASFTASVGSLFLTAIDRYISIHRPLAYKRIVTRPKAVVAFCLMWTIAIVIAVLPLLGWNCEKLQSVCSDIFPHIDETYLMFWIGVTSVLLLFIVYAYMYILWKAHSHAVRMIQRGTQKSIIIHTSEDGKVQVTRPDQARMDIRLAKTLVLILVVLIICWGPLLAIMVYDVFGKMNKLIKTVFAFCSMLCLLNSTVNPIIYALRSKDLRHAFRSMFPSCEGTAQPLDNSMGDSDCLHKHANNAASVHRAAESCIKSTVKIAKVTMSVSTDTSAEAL

SMILES	melting point [°C]	IC50 (human CB1 receptor) [nM]	IC50 (human CB2 receptor) [nM]
Cc1c(C(C)(C)C)s/c(=N\C(=O)c2cccnc2Cl)n1CC1CC1 [compound 301]	124 to 125	191	2
Cc1c(C(C)(C)C)s/c(=N\C(=O)c2cc(Cl)cnc2Cl)n1CC1CC1 [compound 309]	113 to 134	405	2.1
Cc1c(C(C)(C)C)s/c(=N\C(=O)c2cc(F)ccc2Br)n1CC1CC1 [compound 228]	92 to 94	228	0.5
CCc1ccccc1C(=O)/N=c1\sc(C(C)(C)C)c(C)n1CC1CC1 [compound 181]	120 to 122	115	0.8
CCOCCn1c(C)c(C(C)C)s/c1=N\C(=O)c1cccc(C(F)(F)F)c1F [compound 115]	96 to 97	25	0.5
Cc1ccc(C(=O)/N=c2\sc(C(C)(C)C)c(C)n2CC2CC2)c(Br)c1 [compound 246]	82 to 84	319	0.8
CC(C)OCCn1/c(=N/C(=O)c2cccc(Cl)c2Cl)cc(C(C)(C)C)n1C [compound 492]		265	5
Cc1c(C(C)(C)C)s/c(=N\C(=O)c2ncccc2Br)n1CC1CC1 [compound 304]	141 to 142	372	2.3
COc1cccc(F)c1C(=O)/N=c1\sc(C(C)(C)C)c(C)n1CC1CC1 [compound 263]	119 to 121	56	0.6
COc1ccc(C(=O)/N=c2\sc(C(C)(C)C)c(C)n2CC2CC2)c(OC)c1OC [compound 286]	88 to 89	435	12.7
Cc1c(C(C)(C)C)s/c(=N\C(=O)c2ccccc2I)n1CC1CC1 [compound 191]		193	0.7
COc1ccc(C(=O)/N=c2\sc(C(C)(C)C)c(C)n2CC2CC2)c(OC)c1 [compound 236]		215	2
Cc1ncccc1C(=O)/N=c1/sc(C(C)(C)C)c(C)n1CC1CC1 [compound 295]		497	12.3
Cc1c(C(=O)/N=c2\cc(C(C)(C)C)n(C)n2CCOC(C)C)cccc1C(F)(F)F [compound 494]		279	2.1
Cc1c(C(C)(C)C)s/c(=N\C(=O)c2nccc3ccccc23)n1CC1CC1 [compound 324]		353	2
Cc1c(C(C)(C)C)s/c(=N\C(=O)c2ccccc2N2CCOCC2)n1CC1CC1 [compound 206]		460	5.7
Cc1ccccc1C(=O)/N=c1\sc(C(C)(C)C)c(C)n1CC1CC1 [compound 180]		395	1
Cc1c(C(C)(C)C)s/c(=N\C(=O)c2ccccc2Cl)n1CC1CC1 [compound 186]		271	1.7
CCn1c(C)c(C(C)(C)C)s/c1=N\C(=O)c1cc(Cl)ccc1Cl [compound 158]	127 to 128		7.1
COCCn1c(C)c(C(C)(C)C)s/c1=N\C(=O)c1cccc(OC(F)(F)C(F)F)c1 [compound 350]	114 to 116		5.2
O=C(/N=c1\cc(Cl)ccn1CC1CC1)c1cccc(C(F)(F)F)c1F [compound 33]	91 to 93		8.2
Cc1c(C(C)(C)C)s/c(=N\C(=O)c2cc(Br)ccc2OC(F)F)n1CC1CC1 [compound 266]	169 to 170		0.8
Cc1c(C(C)(C)C)s/c(=N\C(=O)c2cccc(N(C)C)c2)n1CC1CC1 [compound 201]	128 to 130		19.1

SMILES	melting point [°C]	IC50 (human CB1 receptor) [nM]	IC50 (human CB2 receptor) [nM]
COc1ccc(F)cc1C(=O)/N=c1\sc(C)c(C)n1CC1CC1 [compound 96]	107 to 109		7.7
Cc1c(C(C)(C)C)s/c(=N\C(=O)c2ccccc2Br)n1CC1CC1 [compound 189]		212	1.5
Cc1c(C(C)(C)C)s/c(=N\C(=O)C2C[C@H]2c2ccccc2)n1CC1CC1 (mixture of isomers) [compound 337]	110 to 112		2.8
CCn1c(C)c(C(C)(C)C)s/c1=N\C(=O)c1cc(Cl)ccc1OC [compound 167]	108 to 109		4.6
Cc1c(C(C)(C)C)s/c(=N\C(=O)c2ccc([N+](=O)[O-])o2)n1CC1CC1 [compound 319]	129 to 130		18.6
Cc1c(C(C)(C)C)s/c(=N\C(=O)CCC(F)(F)F)n1CC1CC1 [compound 335]	102 to 103		5.5
CCn1c(C)c(C(C)(C)C)s/c1=N\C(=O)c1cc(I)ccc1F [compound 157]	87 to 89		12.1
Cc1c(C(C)(C)C)s/c(=N\C(=O)c2cccc3cccnc23)n1CC1CC1 [compound 322]	193 to 195		5.6
Cc1s/c(=N\C(=O)c2cc(F)c(Cl)cc2Cl)n(CC2CC2)c1C [compound 86]	59 to 60		6.5
Cc1c(C(C)(C)C)s/c(=N\C(=O)c2c(F)ccc(F)c2F)n1C [compound 134]	143 to 145		6.8
CCn1c(C)c(C(C)(C)C)s/c1=N\C(=O)c1ccccc1C(F)(F)F [compound 151]	74 to 76		3.2
Cc1s/c(=N\C(=O)c2cc(F)ccc2C(F)(F)F)n(CC2CC2)c1C [compound 93]	131 to 133		17.6
Cc1cccc(Br)c1C(=O)/N=c1\oc(C(C)(C)C)c(C)n1CC1CC1 [compound 248]	89 to 90		5.6
Cc1ccc(F)cc1C(=O)/N=c1\sc(C(C)(C)C)c(C)n1CC1CC1 [compound 241]	91 to 93		1
Cc1c(C(C)(C)C)s/c(=N\C(=O)c2cc(C(F)(F)F)ccc2C(F)(F)F)n1CC1CC1 [compound 220]	159 to 161		3.9
Cc1c(C(C)(C)C)s/c(=N\C(=O)c2cccc(C(F)(F)F)c2F)n1C [compound 141]	176 to 178		13.9
Cc1c(C(C)(C)C)s/c(=N\C(=O)c2cccc(I)c2)n1CC1CC1 [compound 192]	114 to 115		13.2
CCn1c(C)c(C(C)(C)C)s/c1=N\C(=O)c1cc(Br)ccc1F [compound 154]	105 to 106		5.9
Cc1c(C(C)(C)C)s/c(=N\C(=O)c2cc(F)c(F)cc2Cl)n1C [compound 135]	145 to 146		11.9
CCn1c(C)c(C(C)(C)C)s/c1=N\C(=O)c1cnccc1C(F)(F)F [compound 170]	110 to 112		13.8
Cc1cc(Cl)ccc1C(=O)/N=c1\sc(C(C)(C)C)c(C)n1CC1CC1 [compound 242]	108 to 109		4
COc1ccc(C(F)(F)F)cc1C(=O)/N=c1\sc(C(C)(C)C)nn1CC1CC1 [compound 509]	82 to 83		5.9
Cc1c(C(C)(C)C)s/c(=N\C(=O)c2cc3sccc3nc2C(F)(F)F)n1CC1CC1 [compound 328]	147 to 149		11.8
